# US4950739A (priority 1988, dated 1990)
# Like-named read-outs stand apart in the source and are kept apart here.
# Assays:
# [1] = tested on: low-threshold calcium channel in central neurons; conditions: Tang C-M., et al., Science, 240:213; cited from earlier work
# [2] = tested on: calcium channel reconstituted in a lipid bilayer; format: biochemical, guinea pig; conditions: for concentration at which single channels were blocked: cerebellar-origin channel, 80 mM BaCl2 cis / 120 mM CsCl trans; for calcium channel activity of the reconstituted channel: concentration not given
# [3] = tested on: calcium channel in vesicles; test: Calcium uptake into quin-2-loaded vesicles (fluorescence)
# [4] = tested on: low-threshold calcium channel; test: Low-threshold calcium channel isolated on amiloride gel, lipid bilayer; format: biochemical, Guinea pig; conditions: 250micromolar
# Method: Guinea pig cerebellar material was processed as in Example 7. It was then purified according to the method of Example 8 except that the amiloride gel chromatography was performed after the factor-coupled gel chromatography. (The latter chromatographic purification was thus used to remove the high-threshold channel recognized by the active factor of the present invention.)
# The low-threshold calcium channel was eluted from the amiloride gel using 400 mM sucrose, 10 mM HEPES (pH 7.4) containing 1 mM amiloride.
# The channel activity of the thus-purified gel was tested as described above by the lipid bilayer technique. The channel has an estimated conductance of about 8 pS, is characterized by rapid openings (of the order of 1-100 msec at […]), is rapidly inactivated (within about 1 sec at the same depolarization), and was blocked by cadmium (250micromolar).
structure (smiles),measurement,setting,value
"N=C(N)NC(=O)c1nc(Cl)c(N)nc1N [amiloride, 3,5-diamino-N-(aminoiminomethyl)-6-chloropyrazine carboxamide]",block of low-threshold calcium channel,[1],specifically blocks
[Cd] [cadmium],concentration at which single channels were blocked,[2],less than 100 micromolar
same,calcium channel activity of the reconstituted channel,[2],blocked
same,calcium channel activity of the reconstituted channel,[2]; listed as Cd^++,completely blocked
same,uptake of calcium into the vesicles,"[3]; 50 micromolar, calcium 2 mM additions",blocked
same,intravesicular fluorescence over time,[3]; 100 micromolar before addition of 2 mM CaCl2,did not increase with time and remained at the baseline
same,low-threshold channel activity,[4],blocked
[Co] [cobalt],Calcium Conductance,"[2]; 100 mM CaCl2 pH 7.5 and 20 M × 10^-6 Co^++ outside only, voltage range ±200",none
same,concentration at which single channels were blocked,[2],less than 100 micromolar
same,calcium channel activity of the reconstituted channel,[2],blocked
same,calcium channel activity of the reconstituted channel,[2]; listed as Co^++,completely blocked
COC(=O)C1=C(C)NC(C)=C(C(=O)OC)C1c1ccccc1[N+](=O)[O-] [nifedipine],effect on the isolated calcium channels,[2]; 5×10^-6 M,neither blocker had an effect
